Results taken from PubChem BioAssay (NCI).
Several values for one entry are separate records, joined by “and”; a condition that tells them apart may be missing. Equal entries are not always repeated.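 Briefly, cells in 96-well plates were exposed to five compound concentrations for 48 h, and endpoints were estimated by linear interpolation. The concentration for 50% growth inhibition is given as GI50. TGI: total growth inhibition.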

tested on: ACHN renal; experiment: inhibition of tumour cell growth, NCI panel, 48 h

SMILES	GI50	TGI
CN(C)C(=S)Sc1ccc([N+](=O)[O-])cc1[N+](=O)[O-]	1.67 µM	3.05 µM
O=[P@@]1(c2ccccc2)O[C@H](COCc2ccccc2)[C@@H](OCc2ccccc2)[C@H](OCc2ccccc2)[C@H]1NCc1ccccc1	3.38 µM	> 100 µM
CSc1ccccc1C#C/C=C\C#Cc1ccccc1N	20.1 µM	> 100 µM
COc1ccc(C(O)(CCC(C)C)C(CN2CCOCC2)c2ccc(Cl)cc2)cc1 (stereo not drawn)	14.4 µM	27.9 µM
Cn1c(=O)c(Oc2ccc(F)cc2)cc2cnc(NC3CCOCC3)nc21	> 25 µM	> 25 µM
CC1(C)N=C(N)N=C(N)N1c1ccc(CCCCc2ccc(Cl)c(S(=O)(=O)F)c2)c(Cl)c1	6.56 µM	21.1 µM
Cc1cc2cc3c(=O)[nH]c(=O)[nH]c3nc2cc1C		> 100 µM
CCc1c(Cl)c(C)cc(O)c1Cl		60.6 µM
BrCc1cccc(C[P+](c2ccccc2)(c2ccccc2)c2ccccc2)c1	> 100 µM	> 100 µM
C=COC(=O)N[C@H]1CCc2cc(OC)c(OC)c(OC)c2-c2ccc(SC)c(=O)cc21		64.9 µM
CN(C)c1ncnc2c1ncn2CCn1cnc2c(N(C)C)ncnc21		> 100 µM
CSc1nc(NC2OC(COC(C)=O)C(OC(C)=O)C(OC(C)=O)C2OC(C)=O)c(N=CC=Nc2c(NC3OC(COC(C)=O)C(OC(C)=O)C(OC(C)=O)C3OC(C)=O)nc(SC)n(C)c2=O)c(=O)n1C (stereo not drawn)	27.8 µM	50 µM and > 100 µM
O=S(=O)(Nc1ccc(Cl)cc1Cl)c1ccc(-c2cnc(C3CC3)o2)cc1	0.639 µM	21.5 µM
CCc1ccc(/C=C/c2ccc(O)c3ncccc23)[n+](C)c1	> 61.1 µM	> 100 µM
Cc1ccc(Nc2oc(-c3ccccc3)nc2[P+](c2ccccc2)(c2ccccc2)c2ccccc2)cc1	0.988 µM	2.76 µM
CS(=O)(=O)Nc1cc(-c2ccc3ncnc(Nc4c(Cl)ccc5c4OCO5)c3c2)cnc1Cl	0.186 µM	> 48.1 µM
COc1ccccc1Nc1ncc(-c2ccccc2)o1	> 25 µM	> 25 µM
Nc1ccn(C2OC(CO)C(O)C2O)c(=O)n1 (stereo not drawn)	0.195 µM and 0.532 µM	> 100 µM and > 35 µM and 151 µM
CN(C)c1ccc(N=Nc2ccccn2)c(O)c1	0.271 µM	> 100 µM
CN1CC[C@@H](c2c(O)cc(O)c3c(=O)cc(-c4ccc(C(F)(F)F)cc4Cl)oc23)[C@@H]1CO	10.6 µM	38 µM

tested on: RXF 393 renal; experiment: inhibition of tumour cell growth, NCI panel, 48 h

SMILES	GI50 [µM]	TGI
CN(C)C(=S)Sc1ccc([N+](=O)[O-])cc1[N+](=O)[O-]	3.83	8.3 µM
O=[P@@]1(c2ccccc2)O[C@H](COCc2ccccc2)[C@@H](OCc2ccccc2)[C@H](OCc2ccccc2)[C@H]1NCc1ccccc1	3.83	> 100 µM
CSc1ccccc1C#C/C=C\C#Cc1ccccc1N	24.5	> 100 µM
COc1ccc(C(O)(CCC(C)C)C(CN2CCOCC2)c2ccc(Cl)cc2)cc1 (stereo not drawn)	6.49	21.7 µM
Cn1c(=O)c(Oc2ccc(F)cc2)cc2cnc(NC3CCOCC3)nc21	24.7	> 25 µM
CC1(C)N=C(N)N=C(N)N1c1ccc(CCCCc2ccc(Cl)c(S(=O)(=O)F)c2)c(Cl)c1	5.93	27.8 µM
Cc1cc2cc3c(=O)[nH]c(=O)[nH]c3nc2cc1C		> 100 µM
CCc1c(Cl)c(C)cc(O)c1Cl		> 100 µM
BrCc1cccc(C[P+](c2ccccc2)(c2ccccc2)c2ccccc2)c1	54.7	> 100 µM
C=COC(=O)N[C@H]1CCc2cc(OC)c(OC)c(OC)c2-c2ccc(SC)c(=O)cc21		3.14 µM
CN(C)c1ncnc2c1ncn2CCn1cnc2c(N(C)C)ncnc21		> 100 µM
CSc1nc(NC2OC(COC(C)=O)C(OC(C)=O)C(OC(C)=O)C2OC(C)=O)c(N=CC=Nc2c(NC3OC(COC(C)=O)C(OC(C)=O)C(OC(C)=O)C3OC(C)=O)nc(SC)n(C)c2=O)c(=O)n1C (stereo not drawn)	12.4	46.2 µM and 61.5 µM
O=S(=O)(Nc1ccc(Cl)cc1Cl)c1ccc(-c2cnc(C3CC3)o2)cc1	0.359	7.41 µM
CCc1ccc(/C=C/c2ccc(O)c3ncccc23)[n+](C)c1	> 100	> 100 µM
Cc1ccc(Nc2oc(-c3ccccc3)nc2[P+](c2ccccc2)(c2ccccc2)c2ccccc2)cc1	0.864	2.34 µM
CS(=O)(=O)Nc1cc(-c2ccc3ncnc(Nc4c(Cl)ccc5c4OCO5)c3c2)cnc1Cl	0.143	0.575 µM
COc1ccccc1Nc1ncc(-c2ccccc2)o1	> 25	> 25 µM
Nc1ccn(C2OC(CO)C(O)C2O)c(=O)n1 (stereo not drawn)	13.6	> 500 µM
CN(C)c1ccc(N=Nc2ccccn2)c(O)c1	0.229	0.929 µM
CN1CC[C@@H](c2c(O)cc(O)c3c(=O)cc(-c4ccc(C(F)(F)F)cc4Cl)oc23)[C@@H]1CO	10.9	24.8 µM

tested on: SK-MEL-28 melanoma; experiment: inhibition of tumour cell growth, NCI panel, 48 h

SMILES	GI50 [µM]	TGI [µM]
CN(C)C(=S)Sc1ccc([N+](=O)[O-])cc1[N+](=O)[O-]	6.75	18.4
O=[P@@]1(c2ccccc2)O[C@H](COCc2ccccc2)[C@@H](OCc2ccccc2)[C@H](OCc2ccccc2)[C@H]1NCc1ccccc1	4.48	> 100
CSc1ccccc1C#C/C=C\C#Cc1ccccc1N	24.7	50.4
COc1ccc(C(O)(CCC(C)C)C(CN2CCOCC2)c2ccc(Cl)cc2)cc1 (stereo not drawn)	15.7	34.4
Cn1c(=O)c(Oc2ccc(F)cc2)cc2cnc(NC3CCOCC3)nc21	> 25	> 25
CC1(C)N=C(N)N=C(N)N1c1ccc(CCCCc2ccc(Cl)c(S(=O)(=O)F)c2)c(Cl)c1	1.96	16.5
Cc1cc2cc3c(=O)[nH]c(=O)[nH]c3nc2cc1C		> 100
CCc1c(Cl)c(C)cc(O)c1Cl		> 100
BrCc1cccc(C[P+](c2ccccc2)(c2ccccc2)c2ccccc2)c1	21.7	> 100
C=COC(=O)N[C@H]1CCc2cc(OC)c(OC)c(OC)c2-c2ccc(SC)c(=O)cc21		> 96.3
CN(C)c1ncnc2c1ncn2CCn1cnc2c(N(C)C)ncnc21		> 100
CSc1nc(NC2OC(COC(C)=O)C(OC(C)=O)C(OC(C)=O)C2OC(C)=O)c(N=CC=Nc2c(NC3OC(COC(C)=O)C(OC(C)=O)C(OC(C)=O)C3OC(C)=O)nc(SC)n(C)c2=O)c(=O)n1C (stereo not drawn)	> 50	> 100
O=S(=O)(Nc1ccc(Cl)cc1Cl)c1ccc(-c2cnc(C3CC3)o2)cc1	3.28	> 78.8
CCc1ccc(/C=C/c2ccc(O)c3ncccc23)[n+](C)c1	76.2	> 100
Cc1ccc(Nc2oc(-c3ccccc3)nc2[P+](c2ccccc2)(c2ccccc2)c2ccccc2)cc1	1.19	2.55
CS(=O)(=O)Nc1cc(-c2ccc3ncnc(Nc4c(Cl)ccc5c4OCO5)c3c2)cnc1Cl	0.12	1.03
COc1ccccc1Nc1ncc(-c2ccccc2)o1	> 25	> 25
Nc1ccn(C2OC(CO)C(O)C2O)c(=O)n1 (stereo not drawn)		> 500
CN(C)c1ccc(N=Nc2ccccn2)c(O)c1	0.672	> 100
CN1CC[C@@H](c2c(O)cc(O)c3c(=O)cc(-c4ccc(C(F)(F)F)cc4Cl)oc23)[C@@H]1CO	14.4	32.2

tested on: T-47D breast; experiment: inhibition of tumour cell growth, NCI panel, 48 h

SMILES	GI50 [µM]	TGI
CN(C)C(=S)Sc1ccc([N+](=O)[O-])cc1[N+](=O)[O-]	1.56	3.75 µM
O=[P@@]1(c2ccccc2)O[C@H](COCc2ccccc2)[C@@H](OCc2ccccc2)[C@H](OCc2ccccc2)[C@H]1NCc1ccccc1	2.85	7.92 µM
CSc1ccccc1C#C/C=C\C#Cc1ccccc1N	17.6	38.6 µM
COc1ccc(C(O)(CCC(C)C)C(CN2CCOCC2)c2ccc(Cl)cc2)cc1 (stereo not drawn)	11.4	26.9 µM
Cn1c(=O)c(Oc2ccc(F)cc2)cc2cnc(NC3CCOCC3)nc21	22.2	> 25 µM
CC1(C)N=C(N)N=C(N)N1c1ccc(CCCCc2ccc(Cl)c(S(=O)(=O)F)c2)c(Cl)c1	3.11	15.1 µM
Cc1cc2cc3c(=O)[nH]c(=O)[nH]c3nc2cc1C		> 100 µM
CCc1c(Cl)c(C)cc(O)c1Cl		> 100 µM
BrCc1cccc(C[P+](c2ccccc2)(c2ccccc2)c2ccccc2)c1	3.99	> 100 µM
C=COC(=O)N[C@H]1CCc2cc(OC)c(OC)c(OC)c2-c2ccc(SC)c(=O)cc21		> 100 µM
CN(C)c1ncnc2c1ncn2CCn1cnc2c(N(C)C)ncnc21		> 100 µM
CSc1nc(NC2OC(COC(C)=O)C(OC(C)=O)C(OC(C)=O)C2OC(C)=O)c(N=CC=Nc2c(NC3OC(COC(C)=O)C(OC(C)=O)C(OC(C)=O)C3OC(C)=O)nc(SC)n(C)c2=O)c(=O)n1C (stereo not drawn)	43.2	50 µM and > 100 µM
O=S(=O)(Nc1ccc(Cl)cc1Cl)c1ccc(-c2cnc(C3CC3)o2)cc1	0.475	> 85.8 µM
CCc1ccc(/C=C/c2ccc(O)c3ncccc23)[n+](C)c1	1.66	> 100 µM
Cc1ccc(Nc2oc(-c3ccccc3)nc2[P+](c2ccccc2)(c2ccccc2)c2ccccc2)cc1	0.43	2.33 µM
CS(=O)(=O)Nc1cc(-c2ccc3ncnc(Nc4c(Cl)ccc5c4OCO5)c3c2)cnc1Cl	0.0243	0.606 µM
COc1ccccc1Nc1ncc(-c2ccccc2)o1	> 25	> 25 µM
Nc1ccn(C2OC(CO)C(O)C2O)c(=O)n1 (stereo not drawn)	4.2	> 500 µM
CN(C)c1ccc(N=Nc2ccccn2)c(O)c1	0.419	> 49.1 µM
CN1CC[C@@H](c2c(O)cc(O)c3c(=O)cc(-c4ccc(C(F)(F)F)cc4Cl)oc23)[C@@H]1CO	14.5	50.4 µM

tested on: MDA-MB-231 breast; experiment: inhibition of tumour cell growth, NCI panel, 48 h

SMILES	GI50 [µM]	TGI
CN(C)C(=S)Sc1ccc([N+](=O)[O-])cc1[N+](=O)[O-]	3.04	11.9 µM
O=[P@@]1(c2ccccc2)O[C@H](COCc2ccccc2)[C@@H](OCc2ccccc2)[C@H](OCc2ccccc2)[C@H]1NCc1ccccc1	3.22	> 100 µM
CSc1ccccc1C#C/C=C\C#Cc1ccccc1N	4.69	22.2 µM
COc1ccc(C(O)(CCC(C)C)C(CN2CCOCC2)c2ccc(Cl)cc2)cc1 (stereo not drawn)	12.1	27.2 µM
Cn1c(=O)c(Oc2ccc(F)cc2)cc2cnc(NC3CCOCC3)nc21	> 25	> 25 µM
CC1(C)N=C(N)N=C(N)N1c1ccc(CCCCc2ccc(Cl)c(S(=O)(=O)F)c2)c(Cl)c1	4.03	20.6 µM
Cc1cc2cc3c(=O)[nH]c(=O)[nH]c3nc2cc1C		> 100 µM
CCc1c(Cl)c(C)cc(O)c1Cl		> 100 µM
BrCc1cccc(C[P+](c2ccccc2)(c2ccccc2)c2ccccc2)c1	33	> 100 µM
C=COC(=O)N[C@H]1CCc2cc(OC)c(OC)c(OC)c2-c2ccc(SC)c(=O)cc21		1.88 µM
CN(C)c1ncnc2c1ncn2CCn1cnc2c(N(C)C)ncnc21		> 100 µM
CSc1nc(NC2OC(COC(C)=O)C(OC(C)=O)C(OC(C)=O)C2OC(C)=O)c(N=CC=Nc2c(NC3OC(COC(C)=O)C(OC(C)=O)C(OC(C)=O)C3OC(C)=O)nc(SC)n(C)c2=O)c(=O)n1C (stereo not drawn)	25.2	50 µM and > 100 µM
O=S(=O)(Nc1ccc(Cl)cc1Cl)c1ccc(-c2cnc(C3CC3)o2)cc1	2.08	28.4 µM
CCc1ccc(/C=C/c2ccc(O)c3ncccc23)[n+](C)c1	57.9	> 100 µM
Cc1ccc(Nc2oc(-c3ccccc3)nc2[P+](c2ccccc2)(c2ccccc2)c2ccccc2)cc1	0.788	2.17 µM
CS(=O)(=O)Nc1cc(-c2ccc3ncnc(Nc4c(Cl)ccc5c4OCO5)c3c2)cnc1Cl	0.246	2.35 µM
COc1ccccc1Nc1ncc(-c2ccccc2)o1	> 25	> 25 µM
Nc1ccn(C2OC(CO)C(O)C2O)c(=O)n1 (stereo not drawn)		> 500 µM
CN(C)c1ccc(N=Nc2ccccn2)c(O)c1	0.446	> 100 µM
CN1CC[C@@H](c2c(O)cc(O)c3c(=O)cc(-c4ccc(C(F)(F)F)cc4Cl)oc23)[C@@H]1CO	12.7	34.3 µM
